Assays:
[1] = unless administered in toxic quantities; antipyretic analgesics; cited from earlier work
[2] = Carrageenan Rat Paw Edema Test; type: in vivo, male Sprague Dawley rats; conditions: oral (stomach tube), 1 h before carrageenan, paw volume 4 h after carrageenan
Protocol: Compounds of the present invention are tested for anti-inflammatory activity using the Carrageenan Rat Paw Edema Test.
Male Sprague Dawley rats (Charles River Breeding Laboratories Inc.) are weighed and food fasted overnight. The animals are divided into four to six groups of six animals each according to body weights, average about 145 g, so that each group has about the same average weight (within 10 g).
The following morning five ml of water is dosed orally via stomach tube to each animal to facilitate paw swelling. Thirty minutes later the animals are dosed with the test compound and then placed in individual cages. The compound of the present invention is dissolved in distilled deionized water with 1 equivalent of 1N acetic acid and delivered via stomach tube in 1 ml volume.
One hour after dosing the test compound, the animals are placed in a plastic restrainer and 50 ul of a 1% (w/w) carrageenan solution in 0.9% saline is injected into the ventral surface of the left rear paw. Paw volumes (0 time) are determined on both hind paws with a mercury displacement device equipped with a transducer and digitizer following the carrageenan injection. Four hours after the carrageenan injection, the paw volumes are again determined.
The results are expressed as percent inhibition of the mean paw volume of the test group relative to the control group according to the formula:
(C-T a..n)/C×100=Percent Inhibition
where C is the average difference in paw volume before and after carrageenan-induced swelling, and
Ta..n is the difference in paw swelling in the treated animals (a..n). Statistical differences are determined by one way analysis of variance.

Rodent Hot Plate Test = type: in vivo, male Sprague-Dawley rats
Protocol: The degree of thermal analgesia obtained is determined using the "rodent hot plate test" (RHP). The RHP system is designed to detect and evaluate agents which elevate the threshold for the perception of pain. Classically, this method has been utilized primarily to evaluate opioid (narcotic) analgesic agents, such as morphine.
Male Sprague-Dawley rats (Charles River Breeding Laboratories Inc.) weighing between 100 and 125 grams upon arrival are used to evaluate the compounds of the present invention. Animals are double housed in stainless steel cages, and are fed Purina Rat Chow and tap water ad libitum. The animals are food fasted the afternoon proceeding the day of the study, and food is returned 5 hours post-treatment. Animals not being dosed by oral gavage are not fasted.
The apparatus for evaluating analgesic activity consists of an insulated copper hot plate whose surface is maintained at 55°±0.5° C. by a circulating water bath. A bottomless glass container (12" (30 cm) tall by 8" (20 cm) diameter) is used to restrict the animal to a defined area of the hot plate. After dosing, the animal is placed through the top opening of the container, and a stop watch is started when the animal makes contact with the plate. The stop-watch is stopped upon either of the following visually observed end points: (1) licking or biting of either hind paw, or (2) jumping. If the jump is not successful but both hind paws leave the surface of the plate in an effort to jump, this is considered jumping. The stop-watch is stopped at the end point and the animal is immediately removed from the hot plate. The time (latency) between the initial contact of the animal on the hot plate and the endpoint is recorded.
Prior to dosing, animals are tested on the hot plate. This is denoted as pretest or base line latency. Usually, the animals are dosed by oral gavage, using a 1 cubic cm glass syringe connected to a size 8 french catheter. The dose volume is 5 ml/kg. On occasion, the animals are dosed by either subcutaneous administration or intravenous injection. Using the subcutaneous administration, a 1 ml tuberculin syringe is connected to a 25 gauge 5/8 inch needle, and injected under the skin in the neck or back region. For intravenous dosing, a 1 ml tuberculin syringe is connected to a 25 gauge 3/4 inch winged infusion set, and injected into the tail vein. The dose volume for subcutaneous and intravenous routes is 1 ml/kg. The latency times are typically recorded at 1.5, 3, 5, and 24 hours post-treatment. Much shorter times are recorded for an intravenous administration.

[3] = Mouse Abdominal Constriction Assay (phenylquinone writhing); type: in vivo, male CF-1 mice; conditions: for % Analgesia: 1.5 h post-dose
Protocol: Compounds of the present invention are tested for analgesic activity using the mouse abdominal constriction assay. This assay is described in Hendershot and Forsaith, J. Pharmacol. Exo.
Male CF-1 mice (Charles River Breeding Laboratories, Inc.), weighing approximately 20 grams and food fasted overnight, are used in these assays. Test compounds are prepared for oral (p.o.) or subcutaneous (s.c.) administration, with compounds of the present invention being prepared in acidified (1N acetic acid) distilled deionized water so that the appropriate dose is given in 0.2 mls to a 20 gram mouse.
Ten minutes after the i.p. injection of phenylquinone, the number of full body writhes are counted for the succeeding ten minutes. Percent analgesia in this assay is calculated as follows: [formula]

[4] = Oral soft gelatin capsules in human (Example VIII); type: in vivo; conditions: two oral capsules, 225 mg of composition each, 60 kg human
Protocol: (§1) A composition for oral administration is prepared by combining the following ingredients:
The octadecenamide is dissolved in the sesame oil with the aid of sonication and is packaged in soft gelatin capsules using methods known in the art.

[5] = Oral syrup in human (Example IX); type: in vivo; conditions: one teaspoon of syrup, 70 kg adult human
Protocol: as §1
The above ingredients are combined to produce a syrup and are packaged under sterile conditions in 6 oz. bottles.

In the case of `CC(=O)Oc1ccccc1C(=O)O` [aspirin], the “activity in the RHP system” value [1] is given as “little or no activity”.
In the case of `CCCCCCCC/C=C\CCCCCCCC(=O)NCc1ccc(OCCN)c(OC)c1` [N-((4-(2-aminoethoxy)-3-methoxyphenyl)-methyl)-9Z-octadecenamide], the “% Inhibition (of paw volume/swelling vs control)” value ([2]; 25 mg/kg) is reported as 53.5%, the “% Inhibition (of paw volume/swelling vs control)” value ([2]; 50 mg/kg) is reported as 73.7% and the “% Inhibition (of paw volume/swelling vs control)” value ([2]; 100 mg/kg) is reported as 64.9%. The “% Inhibition (of paw volume/swelling vs control)” value ([2]; 200 mg/kg) was 61.4%, the “Mean Latency Times” value (Rodent Hot Plate Test; 75 mg/kg oral, 1.5 hr post dose) was 21.8 s and the “Mean Latency Times” value (Rodent Hot Plate Test; 75 mg/kg oral, 3 hr post dose) was 18.9 s. For the same molecule, the “Mean Latency Times” value (Rodent Hot Plate Test; 75 mg/kg oral, 5 hr post dose) was 18.7 s, the “Mean Latency Times” value (Rodent Hot Plate Test; 75 mg/kg oral, 24 hr post dose) was 11.2 s and the “Mean Latency Times” value (Rodent Hot Plate Test; 150 mg/kg oral, 1.5 hr post dose) was 30.6 s. For the same molecule, the “Mean Latency Times” value (Rodent Hot Plate Test; 150 mg/kg oral, 3 hr post dose) was 18.9 s, the “Mean Latency Times” value (Rodent Hot Plate Test; 150 mg/kg oral, 5 hr post dose) was 15.0 s and the “Mean Latency Times” value (Rodent Hot Plate Test; 150 mg/kg oral, 24 hr post dose) was 11.5 s. For the same molecule, the “Mean Latency Times” value (Rodent Hot Plate Test; 300 mg/kg oral, 1.5 hr post dose) was 30.7 s, the “Mean Latency Times” value (Rodent Hot Plate Test; 300 mg/kg oral, 3 hr post dose) was 22.6 s and the “Mean Latency Times” value (Rodent Hot Plate Test; 300 mg/kg oral, 5 hr post dose) was 21.0 s. The “Mean Latency Times” value (Rodent Hot Plate Test; 300 mg/kg oral, 24 hr post dose) was 16.5 s, the “potency and efficacy relative to codeine” value (Rodent Hot Plate Test; oral) was “at least as potent and efficacious as the known opiate codeine” and the “% Analgesia” value ([3]; 1 mg/kg subcutaneous) was 22.3%. The “% Analgesia” value ([3]; 2 mg/kg subcutaneous) was -13.7%, the “% Analgesia” value ([3]; 4 mg/kg subcutaneous) was 34.3% and the “% Analgesia” value ([3]; 8 mg/kg subcutaneous) was 57.8%. The “% Analgesia” value ([3]; 10 mg/kg oral) was 55.8%, the “% Analgesia” value ([3]; 10 mg/kg subcutaneous) was 91.4% and the “% Analgesia” value ([3]; 25 mg/kg oral) was 71.7%. For the same molecule, the “% Analgesia” value ([3]; 75 mg/kg oral) was 88.3%, the “% Analgesia” value ([3]; 100 mg/kg subcutaneous) was 99.0% and the “% Analgesia” value ([3]; 150 mg/kg oral) was 95.5%. For the same molecule, the “% Analgesia” value ([3]; 300 mg/kg oral) was 93.2%, the “analgesic potency compared with N-vanillyloleamide” value ([3]; oral, at a substantially lower dose) was “substantially greater analgesic potency at a substantially lower dose” and the analgesia [4] was “producing analogesia”. For the same molecule, the reduction of inflammation [4] was “reducing inflammation”, the analgesia [5] was “substantially similar reduction of inflammation and analgesic effect” and the reduction of inflammation [5] was “substantially similar reduction of inflammation”.
In the case of `CC(=O)Nc1ccc(O)cc1` [acetaminophen], the “activity in the RHP system” value [1] is given as “little or no activity”.
